# Results as given in PMC3025903 (Molecular Pain, 2010).
# Assays:
# [1] = target: T1, human N-type Ca^2+ channels stably expressed in HEK293 cells (C2D7 cells) (Homo sapiens, UniProt Q00975); assay: cell-based
# T1 construct: expressed in transfected cells
# [2] = test system: Sprague-Dawley rats; settings: rat, in vivo, iv; SEM
# [3] = test system: Sprague-Dawley rats; settings: rat, in vivo, iv
# T1 sequence (Q00975 whole entry, looked up): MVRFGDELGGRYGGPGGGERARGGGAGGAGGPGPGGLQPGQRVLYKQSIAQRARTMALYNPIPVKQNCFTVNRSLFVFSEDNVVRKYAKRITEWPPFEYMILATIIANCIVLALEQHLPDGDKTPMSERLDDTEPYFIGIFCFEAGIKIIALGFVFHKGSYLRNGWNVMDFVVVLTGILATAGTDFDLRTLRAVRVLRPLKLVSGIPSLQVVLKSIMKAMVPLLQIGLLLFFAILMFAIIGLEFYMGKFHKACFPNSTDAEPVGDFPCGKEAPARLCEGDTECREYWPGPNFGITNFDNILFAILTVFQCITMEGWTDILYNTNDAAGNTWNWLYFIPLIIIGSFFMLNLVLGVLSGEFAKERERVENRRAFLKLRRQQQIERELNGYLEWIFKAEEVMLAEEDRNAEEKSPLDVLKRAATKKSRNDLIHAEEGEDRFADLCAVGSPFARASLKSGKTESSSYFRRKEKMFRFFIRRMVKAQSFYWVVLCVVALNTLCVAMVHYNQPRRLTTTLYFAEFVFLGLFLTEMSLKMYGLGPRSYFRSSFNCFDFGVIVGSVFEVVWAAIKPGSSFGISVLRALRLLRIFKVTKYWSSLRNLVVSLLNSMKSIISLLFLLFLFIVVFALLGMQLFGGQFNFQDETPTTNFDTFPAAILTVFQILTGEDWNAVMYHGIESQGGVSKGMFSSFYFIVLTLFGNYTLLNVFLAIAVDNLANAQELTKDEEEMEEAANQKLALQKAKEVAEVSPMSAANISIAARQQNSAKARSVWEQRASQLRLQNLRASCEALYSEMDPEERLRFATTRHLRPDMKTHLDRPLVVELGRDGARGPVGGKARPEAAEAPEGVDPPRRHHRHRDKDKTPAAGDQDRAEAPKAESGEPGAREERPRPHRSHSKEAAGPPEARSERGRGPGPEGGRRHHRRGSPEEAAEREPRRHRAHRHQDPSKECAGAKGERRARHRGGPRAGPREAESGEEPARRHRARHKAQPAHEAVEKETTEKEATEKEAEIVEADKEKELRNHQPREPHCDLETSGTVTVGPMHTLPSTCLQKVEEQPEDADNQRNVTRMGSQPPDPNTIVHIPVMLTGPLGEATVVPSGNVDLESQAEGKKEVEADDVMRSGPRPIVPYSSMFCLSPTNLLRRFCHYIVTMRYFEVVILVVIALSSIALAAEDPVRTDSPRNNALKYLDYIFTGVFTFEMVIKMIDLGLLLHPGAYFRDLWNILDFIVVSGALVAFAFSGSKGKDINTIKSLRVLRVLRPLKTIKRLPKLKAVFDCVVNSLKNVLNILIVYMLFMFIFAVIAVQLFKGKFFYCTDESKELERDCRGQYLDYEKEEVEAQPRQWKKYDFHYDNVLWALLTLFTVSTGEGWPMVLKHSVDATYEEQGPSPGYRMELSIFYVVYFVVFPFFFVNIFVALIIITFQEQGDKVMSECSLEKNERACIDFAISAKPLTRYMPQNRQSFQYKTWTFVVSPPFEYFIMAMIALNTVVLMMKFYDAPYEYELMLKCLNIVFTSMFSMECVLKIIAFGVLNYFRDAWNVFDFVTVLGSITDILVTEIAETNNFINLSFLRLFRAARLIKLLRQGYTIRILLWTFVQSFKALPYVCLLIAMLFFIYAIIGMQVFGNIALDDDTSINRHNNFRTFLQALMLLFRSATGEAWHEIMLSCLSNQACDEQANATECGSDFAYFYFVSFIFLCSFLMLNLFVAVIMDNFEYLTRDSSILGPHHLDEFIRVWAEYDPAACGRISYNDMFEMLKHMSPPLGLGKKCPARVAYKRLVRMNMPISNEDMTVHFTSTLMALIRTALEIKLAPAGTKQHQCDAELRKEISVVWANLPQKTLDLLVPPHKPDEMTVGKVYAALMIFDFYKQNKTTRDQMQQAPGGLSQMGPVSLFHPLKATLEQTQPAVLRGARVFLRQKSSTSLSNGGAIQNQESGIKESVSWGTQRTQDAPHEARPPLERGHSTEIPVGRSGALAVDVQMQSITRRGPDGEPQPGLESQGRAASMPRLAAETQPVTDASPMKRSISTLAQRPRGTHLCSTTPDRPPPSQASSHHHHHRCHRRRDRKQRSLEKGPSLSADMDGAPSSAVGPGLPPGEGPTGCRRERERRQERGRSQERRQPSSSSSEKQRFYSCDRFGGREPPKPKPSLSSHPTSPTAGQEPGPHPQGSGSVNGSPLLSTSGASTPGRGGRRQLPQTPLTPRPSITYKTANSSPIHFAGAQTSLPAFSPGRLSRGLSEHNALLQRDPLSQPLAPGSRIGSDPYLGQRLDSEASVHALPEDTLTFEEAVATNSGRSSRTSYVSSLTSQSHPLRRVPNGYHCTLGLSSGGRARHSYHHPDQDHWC
Structure (SMILES),block of N-type Ca2+ currents [1] [%],steady-state level to which the currents recovered after washout [1] [%],mean arterial pressure after 60 min [2] [mmHg],mean arterial pressure within 3 min after injection [2] [mmHg],mean blood pressure 5 min after administration [3] [mmHg],mean blood pressure after 5 h [3],IC50 [1] [nM]
"CSCC[C@@H]1NC(=O)[C@H](CC(C)C)NC(=O)[C@H](CCCNC(=N)N)NC(=O)[C@H](CO)NC(=O)[C@@H]2CSSC[C@@H]3NC(=O)[C@H](CO)NC(=O)CNC(=O)[C@H]([C@@H](C)O)NC(=O)[C@H](CSSC[C@H](N)C(=O)N[C@@H](CCCCN)C(=O)NCC(=O)N[C@@H](CCCCN)C(=O)NCC(=O)N[C@@H](C)C(=O)N[C@@H](CCCCN)C(=O)N2)NC(=O)[C@H](CSSC[C@@H](C(N)=O)NC(=O)[C@H](CCCCN)NC(=O)CNC(=O)[C@H](CO)NC(=O)[C@H](CCCNC(=N)N)NC3=O)NC(=O)[C@H](CC(=O)O)NC(=O)[C@H](Cc2ccc(O)cc2)NC1=O [CTx-MVIIA, ω-Conotoxin (CTx)-MVIIA, reference compound]",87.5 ± 1.9,19.8 ± 3.8,65.3 ± 1.9,57.3 ± 3.1,77.5 ± 1.7,87.4 ± 2.6 mmHg,
"CC[C@H](C)[C@@H]1NC(=O)[C@H](CCCNC(=N)N)NC(=O)[C@H](CO)NC(=O)[C@@H]2CSSC[C@@H]3NC(=O)[C@H](CO)NC(=O)CNC(=O)[C@H]([C@@H](C)O)NC(=O)[C@H](CSSC[C@H](N)C(=O)N[C@@H](CCCCN)C(=O)NCC(=O)N[C@@H]([C@@H](C)O)C(=O)NCC(=O)N[C@@H](CCCCN)C(=O)N[C@@H](CO)C(=O)N2)NC(=O)[C@H](CSSC[C@@H](C(N)=O)NC(=O)[C@H](CCCCN)NC(=O)CNC(=O)[C@H](CO)NC(=O)[C@H](CCCNC(=N)N)NC3=O)NC(=O)[C@H](CC(N)=O)NC(=O)[C@H](Cc2ccc(O)cc2)NC(=O)[C@H](C)NC1=O [CTx-FVIA, ω-conotoxin FVIA]",91.25 ± 1.8,78.4 ± 5.8,79.7 ± 4.1,56.4 ± 1.0,78.9 ± 3.1,nearly recovered,11.5 ± 1.4
